The target in one assay is human PHD2181-417 (Homo sapiens (Human), UniProt Q9GZT9). Nature of the assay: PHD2 enzyme activity assay ([14C]-succinic acid production).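 Note: reaction ran 10 min with compound in Tris pH 7.5 buffer with catalase, DTT and ascorbate, labelled succinate freed of leftover 2-oxoglutarate by DNP precipitation, then beta counted.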 Conditions: PHD2181-417 polypeptide, HIF-1α peptide 10 μM, [5-14C]-2-oxoglutaric acid; 30 min pre-incubation; tested 10 μM to 3 nM. It is filed as biochemical.
Chain of human PHD2181-417 (Q9GZT9 181-417): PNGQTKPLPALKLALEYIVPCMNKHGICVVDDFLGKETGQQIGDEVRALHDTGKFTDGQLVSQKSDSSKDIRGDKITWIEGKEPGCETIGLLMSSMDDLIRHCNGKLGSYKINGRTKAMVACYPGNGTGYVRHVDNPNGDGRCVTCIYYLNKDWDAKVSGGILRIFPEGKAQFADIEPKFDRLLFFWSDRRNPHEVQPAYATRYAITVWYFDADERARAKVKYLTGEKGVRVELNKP
The test system of the next assay is Hep-3B cells. Nature of the assay: Cellular assay: EPO secretion in Hep-3B cells. Further details: EPO secretion, % of control compound: dose or concentration left out as unconfirmed. It is filed as cell-based, human. To be noted: Homo sapiens, Hep3B, 24 h, EPO secretion as percentage of control compound 7-[(4-Chloro-phenyl)-(5-methyl-isoxazol-3-ylamino)-methyl]-quinolin-8-ol, read-out: Cellular % EPO Stimulation.

With `O=C(O)c1cnn(-c2nc3cc(N4CCCC4)c(Cl)cc3[nH]2)c1` [Example 43, 1-(6-Chloro-5-pyrrolidin-1-yl-1H-benzoimidazol-2-yl)-1H-pyrazole-4-carboxylic Acid], the “Enzyme pIC50” value at human PHD2181-417 came to 6.7. The EPO secretion, % of control compound in the assay with Hep-3B cells was found to be 178%.

In the case of `O=C(O)c1cnn(-c2nc3cc(N4CCCCC4)c(Cl)cc3[nH]2)c1` [Example 44, 1-(6-Chloro-5-piperidin-1-yl-1H-benzoimidazol-2-yl)-1H-pyrazole-4-carboxylic Acid], the “Enzyme pIC50” value on human PHD2181-417 stood at 6.7. The EPO secretion, % of control compound with Hep-3B cells turned out to be 139%.

As for `O=C(O)c1cnn(-c2nc3cc(N4CCOCC4)c(Cl)cc3[nH]2)c1` [Example 45, 1-(6-Chloro-5-morpholin-4-yl-1H-benzoimidazol-2-yl)-1H-pyrazole-4-carboxylic Acid], on human PHD2181-417, the “Enzyme pIC50” value was 6.6. Further, in the assay with Hep-3B cells, the EPO secretion, % of control compound came to 30.9%.

With `COc1cc2[nH]c(-n3cc(C(=O)O)cn3)nc2cc1Cl` [Example 46, 1-(6-Chloro-5-methoxy-1H-benzoimidazol-2-yl)-1H-pyrazole-4-carboxylic Acid], the “Enzyme pIC50” value at human PHD2181-417 amounted to 6.5. In the assay with Hep-3B cells, the EPO secretion, % of control compound stood at 76%.

For the compound `O=C(O)c1ccc2[nH]c(-n3cc(C(=O)O)cn3)nc2c1` [Example 47, 2-(4-Carboxy-pyrazol-1-yl)-1H-benzoimidazole-5-carboxylic Acid], the “Enzyme pIC50” value on human PHD2181-417 was 6.6. Also, in the assay on Hep-3B cells, the EPO secretion, % of control compound came out at 11%.

In the case of `O=C(O)c1cnn(-c2nc3cc(Br)cc(F)c3[nH]2)c1` [Example 48, 1-(5-Bromo-7-fluoro-1H-benzoimidazol-2-yl)-1H-pyrazole-4-carboxylic Acid], on human PHD2181-417, the “Enzyme pIC50” value amounted to 6.3. For the same compound, in the assay on Hep-3B cells, the EPO secretion, % of control compound is 44%.

Turning to `Cc1cc(Br)cc2nc(-n3cc(C(=O)O)cn3)[nH]c12` [Example 49, 1-(5-Bromo-7-methyl-1H-benzoimidazol-2-yl)-1H-pyrazole-4-carboxylic Acid], on human PHD2181-417, the “Enzyme pIC50” value is recorded as 6.1. Further, in the assay on Hep-3B cells, the EPO secretion, % of control compound was 24%.

With `O=C(O)c1cnn(-c2nc3cc(Oc4ccc(Cl)c(Cl)c4)c(C(F)(F)F)cc3[nH]2)c1` [Example 50, 1-[5-(3,4-Dichloro-phenoxy)-6-trifluoromethyl-1H-benzoimidazol-2-yl]-1H-pyrazole-4-carboxylic Acid], the “Enzyme pIC50” value at human PHD2181-417 is given as 7.4. Besides, the EPO secretion, % of control compound with Hep-3B cells amounted to 18%.

As to `O=C(O)c1cnn(-c2nc3cc(Oc4ccc(Cl)cc4)c(Cl)cc3[nH]2)c1` [Example 51, 1-[6-Chloro-5-(4-chloro-phenoxy)-1H-benzoimidazol-2-yl]-1H-pyrazole-4-carboxylic Acid], the “Enzyme pIC50” value at human PHD2181-417 is given as 7.4. Moreover, in the assay with Hep-3B cells, the EPO secretion, % of control compound turned out to be 150%.

`O=C(O)c1cnn(-c2nc3cc(Oc4ccc(Cl)cc4)c(OC(F)(F)F)cc3[nH]2)c1` [Example 52, 1-[5-(4-Chloro-phenoxy)-6-trifluoromethoxy-1H-benzoimidazol-2-yl]-1H-pyrazole-4-carboxylic Acid]: at human PHD2181-417, the “Enzyme pIC50” value was found to be 7.4. Further, the EPO secretion, % of control compound in the assay on Hep-3B cells stood at 21.6%.

For the compound `O=C(O)c1cnn(-c2nc3cc(Oc4ccccc4)c(OC(F)(F)F)cc3[nH]2)c1` [Example 53, 1-(5-Phenoxy-6-trifluoromethoxy-1H-benzoimidazol-2-yl)-1H-pyrazole-4-carboxylic Acid], the “Enzyme pIC50” value on human PHD2181-417 is listed as 7.2. Further, the EPO secretion, % of control compound with Hep-3B cells was determined as 138%.

For `O=C(O)c1cnn(-c2nc3cc(Oc4ccc(F)cc4)c(C(F)(F)F)cc3[nH]2)c1` [Example 54, 1-[5-(4-Fluoro-phenoxy)-6-trifluoromethyl-1H-benzoimidazol-2-yl]-1H-pyrazole-4-carboxylic Acid], on human PHD2181-417, the “Enzyme pIC50” value stood at 7.3. Also, the EPO secretion, % of control compound in the assay on Hep-3B cells is 75.5%.

As to `O=C(O)c1cnn(-c2nc3cc(Oc4ccc(Cl)cc4)c(C(F)(F)F)cc3[nH]2)c1` [Example 55, 1-[5-(4-Chloro-phenoxy)-6-trifluoromethyl-1H-benzoimidazol-2-yl]-1H-pyrazole-4-carboxylic Acid], at human PHD2181-417, the “Enzyme pIC50” value turned out to be 7.5. Also, in the assay on Hep-3B cells, the EPO secretion, % of control compound is 44.2%.

Take `O=C(O)c1cnn(-c2nc3cc(Oc4ccccc4)c(C(F)(F)F)cc3[nH]2)c1` [Example 56, 1-(5-Phenoxy-6-trifluoromethyl-1H-benzoimidazol-2-yl)-1H-pyrazole-4-carboxylic Acid]: the “Enzyme pIC50” value at human PHD2181-417 was 7.2. For the same compound, the EPO secretion, % of control compound with Hep-3B cells was 143%.

`O=C(O)c1cnn(-c2nc3cc(Oc4ccccc4)c(Cl)cc3[nH]2)c1` [Example 57, 1-(6-Chloro-5-phenoxy-1H-benzoimidazol-2-yl)-1H-pyrazole-4-carboxylic Acid]: the “Enzyme pIC50” value on human PHD2181-417 amounted to 6.9. The EPO secretion, % of control compound with Hep-3B cells stood at 55%.

Consider `Cc1ccc2c(n1)c(Br)cc1nc(-n3cc(C(=O)O)cn3)[nH]c12` [Example 58, 1-(5-Bromo-7-methyl-1H-imidazo[4,5-f]quinolin-2-yl)-1H-pyrazole-4-carboxylic Acid], for which the “Enzyme pIC50” value on human PHD2181-417 was determined as 7.2. Also, the EPO secretion, % of control compound in the assay on Hep-3B cells amounted to 50%.

`O=C(O)c1cnn(-c2nc3cc(OCc4ccccc4)c(Cl)cc3[nH]2)c1` [Example 59, 1-(5-Benzyloxy-6-chloro-1H-benzoimidazol-2-yl)-1H-pyrazole-4-carboxylic Acid]: the “Enzyme pIC50” value at human PHD2181-417 was determined as 6.4. For the same compound, the EPO secretion, % of control compound in the assay on Hep-3B cells is 55.9%.

Take `Cc1cccc(Sc2cc3nc(-n4cc(C(=O)O)cn4)[nH]c3cc2Cl)c1` [Example 60, 1-(6-Chloro-5-m-tolylsulfanyl-1H-benzoimidazol-2-yl)-1H-pyrazole-4-carboxylic Acid]: the “Enzyme pIC50” value at human PHD2181-417 worked out at 6.9. In addition, the EPO secretion, % of control compound with Hep-3B cells was 42.3%.

For the compound `O=C(O)c1cnn(-c2nc3cc(Sc4ccc(Cl)cc4)c(Cl)cc3[nH]2)c1` [Example 61, 1-[6-Chloro-5-(4-chloro-phenylsulfanyl)-1H-benzoimidazol-2-yl]-1H-pyrazole-4-carboxylic Acid], the “Enzyme pIC50” value at human PHD2181-417 was 7.07. Moreover, in the assay on Hep-3B cells, the EPO secretion, % of control compound turned out to be 101%.

As for `O=C(O)c1cnn(-c2nc3cc(Sc4ccccc4)c(Cl)cc3[nH]2)c1` [Example 62, 1-(6-Chloro-5-phenylsulfanyl-1H-benzoimidazol-2-yl)-1H-pyrazole-4-carboxylic Acid], the “Enzyme pIC50” value on human PHD2181-417 was determined as 6.75. Further, in the assay with Hep-3B cells, the EPO secretion, % of control compound came to 45.8%.

As for `O=C(O)c1cnn(-c2nc3cc(Sc4ccc(Cl)c(Cl)c4)c(Cl)cc3[nH]2)c1` [Example 63, 1-[6-Chloro-5-(3,4-dichloro-phenylsulfanyl)-1H-benzoimidazol-2-yl]-1H-pyrazole-4-carboxylic Acid], on human PHD2181-417, the “Enzyme pIC50” value stood at 6.18. Besides, in the assay on Hep-3B cells, the EPO secretion, % of control compound turned out to be 26.5%.

Regarding `COc1cccc(Sc2cc3nc(-n4cc(C(=O)O)cn4)[nH]c3cc2Cl)c1` [Example 64, 1-[6-Chloro-5-(3-methoxy-phenylsulfanyl)-1H-benzoimidazol-2-yl]-1H-pyrazole-4-carboxylic Acid], on human PHD2181-417, the “Enzyme pIC50” value is 6.9. Further, in the assay with Hep-3B cells, the EPO secretion, % of control compound is 38.3%.

Regarding `COc1ccc(Sc2cc3nc(-n4cc(C(=O)O)cn4)[nH]c3cc2Cl)cc1` [Example 65, 1-[6-Chloro-5-(4-methoxy-phenylsulfanyl)-1H-benzoimidazol-2-yl]-1H-pyrazole-4-carboxylic Acid], the “Enzyme pIC50” value on human PHD2181-417 is reported as 6.6. In addition, the EPO secretion, % of control compound in the assay with Hep-3B cells stood at 56.3%.

Consider `O=C(O)c1cnn(-c2nc3cc(SCc4ccccc4)c(Cl)cc3[nH]2)c1` [Example 66, 1-(5-Benzylsulfanyl-6-chloro-1H-benzoimidazol-2-yl)-1H-pyrazole-4-carboxylic Acid], for which the “Enzyme pIC50” value on human PHD2181-417 was 6.7. Further, the EPO secretion, % of control compound in the assay on Hep-3B cells is 41.6%.

As for `CC(C)(C)c1ccc(CSc2cc3nc(-n4cc(C(=O)O)cn4)[nH]c3cc2Cl)cc1` [Example 67, 1-[5-(4-tert-Butyl-benzylsulfanyl)-6-chloro-1H-benzoimidazol-2-yl]-1H-pyrazole-4-carboxylic Acid], the “Enzyme pIC50” value on human PHD2181-417 came out at 7.2. Besides, in the assay on Hep-3B cells, the EPO secretion, % of control compound came to 11.7%.

For `O=C(O)c1cnn(-c2nc3cc(SCc4ccc(F)cc4)c(Cl)cc3[nH]2)c1` [Example 68, 1-[6-Chloro-5-(4-fluoro-benzylsulfanyl)-1H-benzoimidazol-2-yl]-1H-pyrazole-4-carboxylic Acid], on human PHD2181-417, the “Enzyme pIC50” value came to 6.8. Also, in the assay with Hep-3B cells, the EPO secretion, % of control compound was 58.4%.

With `O=C(O)c1cnn(-c2nc3cc(SCc4ccccc4Cl)c(Cl)cc3[nH]2)c1` [Example 69, 1-[6-Chloro-5-(2-chloro-benzylsulfanyl)-1H-benzoimidazol-2-yl]-1H-pyrazole-4-carboxylic Acid], the “Enzyme pIC50” value on human PHD2181-417 was determined as 6.8. Besides, the EPO secretion, % of control compound with Hep-3B cells came to 85.3%.

With `O=C(O)c1cnn(-c2nc3cc(SCCc4ccccc4)c(Cl)cc3[nH]2)c1` [Example 70, 1-(6-Chloro-5-phenethylsulfanyl-1H-benzoimidazol-2-yl)-1H-pyrazole-4-carboxylic Acid], at human PHD2181-417, the “Enzyme pIC50” value is 6.7. Further, in the assay on Hep-3B cells, the EPO secretion, % of control compound was found to be 74.2%.

In the case of `CSc1cc2[nH]c(-n3cc(C(=O)O)cn3)nc2cc1C(F)(F)F` [Example 71, 1-(6-Methylsulfanyl-5-trifluoromethyl-1H-benzoimidazol-2-yl)-1H-pyrazole-4-carboxylic Acid], on human PHD2181-417, the “Enzyme pIC50” value was 7.1. Also, in the assay with Hep-3B cells, the EPO secretion, % of control compound was determined as 114%.

For `CSc1cc2[nH]c(-n3cc(C(=O)O)cn3)nc2cc1F` [Example 74, 1-(5-Fluoro-6-methylsulfanyl-1H-benzoimidazol-2-yl)-1H-pyrazole-4-carboxylic Acid], the “Enzyme pIC50” value at human PHD2181-417 is given as 6.9. Further, the EPO secretion, % of control compound with Hep-3B cells is 77.8%.

For `CSc1cc2[nH]c(-n3cc(C(=O)O)cn3)nc2cc1Cl` [Example 75, 1-(5-Chloro-6-methylsulfanyl-1H-benzoimidazol-2-yl)-1H-pyrazole-4-carboxylic Acid], the “Enzyme pIC50” value on human PHD2181-417 came to 7. Also, in the assay with Hep-3B cells, the EPO secretion, % of control compound came out at 106%.

Source of the values: patent US10851083B2, “Benzoimidazoles as prolyl hydroxylase inhibitors” (Janssen Pharmaceutica NV, priority 2008, dated 2020).
